Measured values reported in patent publication US20200171030A1, “DUAL INHIBITORS OF ALK5 AND P38A MAP KINASE” (INTEGRAL BIOSCIENCES PRIVATE LIMITED, priority 2018, published 2020).
pIC50: −log10 of the molar value. Counter-ions that a name gives are not always drawn. Like-named read-outs stand apart in the source and are kept apart here.

Tests used:
[1] = tested on: Panc-1; assay: Cell viability assay (resazurin, 96 hr) in Panc-1; assay type: cell-based; conditions: Homo sapiens; Panc-1 pancreatic cell line, 96 hr exposure; read-out: Panc-1_Cell Viability_IC50
Protocol: (§1) Cell Viability Assay in MIA PaCa-2 and Panc-1
(§2) MIA PaCa-2 (ATCC® CRL-1420™) and Panc-1 (CRL-1469™), both pancreatic cell lines were seeded in their respective medium (DMEM, Cat #10569044 with 10% FBS, Cat #16000044; Gibco for Panc-1 and an additional 2.5% Horse Serum, Cat #16050122; Gibco for MIA PaCa-2) at a cell count of 3000 cells per 100 μl per well in a 96 well edge plate (167425; ThermoFisher). Cells were allowed to grow at 37° C. for 24 hr in 5% CO2 (culture conditions) in a Nuaire incubator (humidified). Serially diluted compounds (100 μl) were added to the culture plate 24 hr later and the cultures (MIA PaCa-2 and Panc-1) were further incubated in culture conditions for 96 hr. Experiment was terminated at the completion of 96 hr exposure to the drug by replacing the medium with 100 μl of 1 mM of resazurin (R7017; Sigma) prepared in culture medium and the plates were further incubated in culture conditions for 4 hr. Fluorescence was then measured using a multimodal plate reader (Biotek Synergy Neo) at an excitation wavelength of 535 nm and emission wavelength of 590 nm to obtain relative fluorescence units. Data analysis was done by subtracting the background fluorescence (only medium blank) value from each reading and then normalizing with the vehicle control (DMSO treated cells) to obtain percent survival/proliferation. Percent survival at different doses was used to calculate IC50 by fitting the curve to the “four-parameter variable slope logistic model” using Prism Graph Pad.

[2] = target: T1, TGFBR1 (ALK5) (Homo sapiens, UniProt P36897); assay: ALK5 kinase assay (LanthaScreen Terbium labeled TR-FRET); assay type: biochemical; conditions: for inhibition at 0.1 µM: 100 nM concentration of compound, read-out: Enzyme Activity TGFBR1 (ALK5) % Inhibition at 100 nM
T1 sequence (P36897 34-503): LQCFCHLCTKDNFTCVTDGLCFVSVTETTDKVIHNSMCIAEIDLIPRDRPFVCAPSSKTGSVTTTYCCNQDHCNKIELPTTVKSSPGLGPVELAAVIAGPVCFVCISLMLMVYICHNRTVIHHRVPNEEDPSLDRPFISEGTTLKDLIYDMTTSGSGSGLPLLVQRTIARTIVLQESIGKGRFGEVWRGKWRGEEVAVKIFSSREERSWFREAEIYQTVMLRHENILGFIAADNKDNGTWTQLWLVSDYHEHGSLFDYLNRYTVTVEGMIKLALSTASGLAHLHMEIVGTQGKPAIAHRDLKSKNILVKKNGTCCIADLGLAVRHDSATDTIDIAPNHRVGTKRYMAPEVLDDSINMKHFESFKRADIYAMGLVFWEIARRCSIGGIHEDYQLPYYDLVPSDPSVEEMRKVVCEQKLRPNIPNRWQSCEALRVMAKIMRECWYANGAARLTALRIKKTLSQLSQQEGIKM
Protocol: ALK5 Kinase Assay for IC50 Determination:
IC50 values of compounds against TGFβ kinase was determined by LanthaScreen™ Terbium Labeled TR-FRET assay. Kinase assays were performed in IX kinase buffer (# PV6135, Invitrogen, Life Technologies Grand Island, N.Y.) where total reaction volume was 10 μL in low-volume 384-well plates (#4511,Corning). Serially diluted compounds (3-fold) were incubated with TGFβ kinase (6 nM) for 10 min, following which a mixture of ATP (10 μM) (# A1852, Sigma, St-Louis, Mo.) and fluorescent-PolyGT substrate (200 nM) (# PV3610, Invitrogen, Life Technologies Grand Island, N.Y.) was added and incubated in dark at room temperature for 1 h. After 1 h, 10 μL stop solution containing Terbium labeled antibody (4 nM) (# PV3529, Invitrogen, Life Technologies Grand Island, N.Y.) and EDTA (# E5134, Sigma, St-Louis, Mo.) (20 mM) in TR-FRET dilution buffer (# PV3574, Invitrogen, Life Technologies Grand Island, N.Y.) was added. Readings were taken in a Synergy Neo Plate reader (BioTek, Winooski) at single excitation of 340 nm and Dual emission at 495 nm and 520 nm respectively.
The % activity of test samples was calculated as (Sample−Min)×100/(Max−Min). [Max: DMSO control, complete reaction with enzyme with DMSO and Min: No enzyme with DMSO]. Percent inhibition (100-% activity) was fitted to the “four-parameter logistic model” in XLfit for determination of IC50 values.

[3] = target: T2, MAPK14/p38α kinase (Homo sapiens, UniProt Q16539); assay: MAPK14/p38α kinase assay (LanthaScreen TR-FRET); assay type: biochemical; conditions: for inhibition at 0.1 µM: 100 nM concentration of compound; for pIC50: Table 3, read-out: IC50 (P38 alpha)
T2 construct: purchased ThermoFisher PV3304
T2 sequence (Q16539 whole entry): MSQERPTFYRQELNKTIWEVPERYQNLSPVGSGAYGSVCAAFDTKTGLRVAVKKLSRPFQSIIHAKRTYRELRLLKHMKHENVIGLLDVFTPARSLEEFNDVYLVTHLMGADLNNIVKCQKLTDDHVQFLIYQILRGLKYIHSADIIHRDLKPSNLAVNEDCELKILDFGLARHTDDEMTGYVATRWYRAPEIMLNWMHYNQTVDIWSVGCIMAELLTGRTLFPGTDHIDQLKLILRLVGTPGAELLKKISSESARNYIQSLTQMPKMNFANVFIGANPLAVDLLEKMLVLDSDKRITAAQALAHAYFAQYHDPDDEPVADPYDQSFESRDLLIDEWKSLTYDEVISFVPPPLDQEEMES
Protocol: MAPK14/p38α Kinase Assay for IC50 Determination:
IC50 values of compounds against MAPK14/P38α kinase were determined by Lanthascreen based TR-FRET assay. Kinase reactions were performed in a 10 μL volume in low-volume 384-well plates. The concentration of substrate was maintained at 400 nM in the assay, and the kinase reaction buffer (1×; Cat # PV3189, ThermoFisher) consisted of 50 mM HEPES pH 7.5, 0.01% BRIJ-35, 10 mM MgCl2, and 1 mM EGTA. Serially diluted compounds (3-fold) in DMSO (0.5% in final reaction) were incubated with cocktail of MAPK14/p38α kinase (20 ng/ml; Cat # PV3304, ThermoFisher), Substrate GFP-ATF2 (19-96), (0.4 μM; Cat # PV4445, ThermoFisher), ATP (90 μM; Cat # PV3227, ThermoFisher) and buffer. Kinase reactions were allowed to proceed for 1 hour at room temperature before EDTA (10 mM; Cat # P2825, ThermoFisher) and LanthaScreen™ Tb-antipATF2 (pThr71) Antibody (2 nM; Cat # PV4451, ThermoFisher) in TR-FRET dilution buffer (IX; Cat # PV3574, ThermoFisher) were added. The plate was allowed to incubate at room temperature for 30 minutes before being read on a BMG Pherastar plate reader using the LanthaScreen™ filter block for LanthaScreen™ TR-FRET.
The resulting TR-FRET emission ratio was plotted against the concentration of inhibitor, and the data was fit to a sigmoidal dose-response curve with a variable slope. The IC50 for the inhibitor was calculated from the curve.

[4] = tested on: MIA PaCa-2; assay: Cell viability assay (resazurin, 96 hr) in MIA PaCa-2; assay type: cell-based; conditions: Homo sapiens; MIA PaCa-2 pancreatic cell line, 96 hr exposure; read-out: MiaPaCa-2_Cell Viability_IC50
Protocol: as §1, §2

[5] = read-out: Enzyme Activity MAPK14 (p38 alpha) % Inhibition at 100 nM
[6] = Table 4, read-out: Enzyme Activity MAPK14 (p38alpha) % Inh at 100 nM

Compound | pIC50 [1] | inhibition at 0.1 µM [2] | inhibition at 0.1 µM [3, 5] | pIC50 [4] | pIC50 ([2]; Table 3, read-out: IC50 (ALK5)) | pIC50 [3] | pIC50 ([2]; Table 4, read-out: ALK5 IC50) | inhibition at 0.1 µM [3, 6]
CC(C)c1cnc(-c2ccc(F)cc2)nc1Nc1ccnc2[nH]cc(N3CCOCC3)c12 [Compound No. 5, N-(2-(4-fluorophenyl)-5-isopropylpyrimidin-4-yl)-3-morpholino-1H-pyrrolo [2,3-b] pyridin-4-amine hydrochloride] | < 4.52 | 88% | 7% | < 4.52 | – | – | – | –
CC(C)c1cnc(-c2ccc(F)cc2)nc1Nc1ccnc2[nH]cc(-n3cncn3)c12 [Compound No. 6, N-(2-(4-fluorophenyl)-5-isopropylpyrimidin-4-yl)-3-(1H-1,2,4-triazol-1-yl)-1H-pyrrolo [2,3-b] pyridin-4-amine hydrochloride] | 6.19 | 97% | 0% | 6.18 | – | – | – | –
CC(C)c1cnc(-c2ccc(F)cc2)nc1Nc1ccnc2[nH]cc(N3CCNC[C@@H]3C)c12 [Compound No. 7, N-(2-(4-fluorophenyl)-5-isopropylpyrimidin-4-yl)-3-(2-methylpiperazin-1-yl)-1H-pyrrolo [2,3-b] pyridin-4-amine hydrochloride] | 5.57 | – | – | 5.61 | 6.81 | 7.38 | – | –
CC(C)c1cnc(-c2ccc(F)cc2)nc1Nc1ccnc2[nH]cc(N3CCNC[C@H]3C)c12 [Compound No. 8, N-(2-(4-fluorophenyl)-5-isopropylpyrimidin-4-yl)-3-(2-methylpiperazin-1-yl)-1H-pyrrolo [2,3-b] pyridin-4-amine hydrochloride] | < 4.52 | – | – | < 4.52 | 7.02 | 7.21 | – | –
CC(C)c1cnc(-c2ccc(F)cc2)nc1Nc1ccnc2[nH]cc(N3CCN[C@H](C)C3)c12 [Compound No. 9, (R)—N-(2-(4-fluorophenyl)-5-isopropylpyrimidin-4-yl)-3-(3-methylpiperazin-1-yl)-1H-pyrrolo[2,3-b]pyridin-4-amine hydrochloride] | 5.48 | – | – | 5.45 | – | – | 6.99 | 52%
CC(C)c1cnc(-c2ccc(F)cc2)nc1Nc1ccnc2[nH]cc(N3CCNC(=O)C3)c12 [Compound No. 10, 4-(4-(2-(4-fluorophenyl)-5-isopropylpyrimidin-4-ylamino)-1H-pyrrolo [2,3-b]pyridin-3-yl) piperazin-2-one formate] | 5.56 | – | – | 5.46 | – | – | 6.52 | 28%
CC(C)c1cnc(-c2ccc(F)cc2)nc1Nc1ccnc2[nH]cc(N3CCN[C@@H](C)C3)c12 [Compound No. 11, (S)—N-(2-(4-fluorophenyl)-5-isopropylpyrimidin-4-yl)-3-(3-methylpiperazin-1-yl)-1H-pyrrolo[2,3-b]pyridin-4-amine hydrochloride] | 5.55 | – | – | 5.69 | – | – | 6.83 | 18%
CC(C)c1cnc(-c2ccc(F)cc2)nc1Nc1ccnc2[nH]cc(N3CCC(C(N)=O)CC3)c12 [Compound No. 12, 1-(4-((2-(4-fluorophenyl)-5-isopropylpyrimidin-4-yl)amino)-1H-pyrrolo[2,3-b]pyridin-3-yl)piperidine-4-carboxamide formic acid] | 5.59 | – | – | 5.75 | – | – | 5.93 | 37%
CC(C)c1cnc(-c2ccc(F)cc2)nc1Nc1ccnc2[nH]cc(C(=O)C(N)=O)c12 [Compound No. 17, 2-(4-((2-(4-fluorophenyl)-5-isopropylpyrimidin-4-yl)amino)-1H-pyrrolo[2,3-b]pyridin-3-yl)-2-oxoacetamide hydrochloride] | < 4.52 | – | – | 6.12 | < 5.30 | 6.51 | – | –
CNC(=O)C(=O)c1c[nH]c2nccc(Nc3nc(-c4cc(Cl)ccc4F)ncc3C(C)C)c12 [Compound No. 18, 2-(4-((2-(5-chloro-2-fluorophenyl)-5-isopropylpyrimidin-4-yl)amino)-1H-pyrrolo[2,3-b]pyridin-3-yl)-N-methyl-2-oxoacetamide hydrochloride] | < 4.52 | – | – | < 4.52 | < 5.30 | 6.46 | – | –
CC(C)c1cnc(-c2ccc(F)cc2)cc1Nc1ccnc2[nH]cc(C(=O)C(N)=O)c12 [Compound No. 19, 2-(4-((2-(4-fluorophenyl)-5-isopropylpyridin-4-yl)amino)-1H-pyrrolo[2,3-b]pyridin-3-yl)-2-oxoacetamide hydrochloride] | 4.63 | – | – | 4.81 | 6.56 | 5.75 | – | –
CC(C)c1cnc(-c2ccc(F)cc2)nc1Nc1ccnc2[nH]cc(C(=O)C(=O)N3CCNCC3)c12 [Compound No. 23, 1-(4-(2-(4-fluorophenyl)-5-isopropylpyrimidin-4-ylamino)-1H-pyrrolo [2,3-b]pyridin-3-yl)-2-(piperazin-1-yl) ethane-1,2-dione hydrochloride] | 5.23 | – | – | 5.95 | 6.17 | 5.89 | – | –
CC(C)c1cnc(-c2ccccc2)nc1Nc1ccnc2[nH]cc(C(=O)C(N)=O)c12 [Compound No. 26, 2-(4-((5-isopropyl-2-phenylpyrimidin-4-yl)amino)-1H-pyrrolo[2,3-b]pyridin-3-yl)-2-oxoacetamide hydrochloride] | < 4.52 | – | – | 5.66 | 6.22 | 6.61 | – | –
